What all share (experiment): Activity-based Protein Profiling (ABPP)
Conditions in all cases: pH 7.4; 37 °C

Assay [1] addresses T1, Rhomboid-related protein 1 (Mus musculus, UniProt Q8VC82).
T1 sequence (Q8VC82 whole entry): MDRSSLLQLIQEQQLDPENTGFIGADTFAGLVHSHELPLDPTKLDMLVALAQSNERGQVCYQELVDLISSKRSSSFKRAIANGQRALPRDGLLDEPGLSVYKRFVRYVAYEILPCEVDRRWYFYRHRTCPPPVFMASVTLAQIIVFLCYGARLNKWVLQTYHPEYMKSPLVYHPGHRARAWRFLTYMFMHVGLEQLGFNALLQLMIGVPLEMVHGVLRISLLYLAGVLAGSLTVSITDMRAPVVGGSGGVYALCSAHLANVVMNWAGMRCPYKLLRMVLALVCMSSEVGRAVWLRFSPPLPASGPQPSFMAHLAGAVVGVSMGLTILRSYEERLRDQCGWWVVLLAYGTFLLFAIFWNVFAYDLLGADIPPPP
The text has this:
(§1) We selected several inhibitor structures and determined their apparent IC50 by competitive ABPP.

A further assay concerns the target T2, GlpG protein (Vibrio cholerae, UniProt Q9KVP2).
T2 sequence (Q9KVP2 whole entry): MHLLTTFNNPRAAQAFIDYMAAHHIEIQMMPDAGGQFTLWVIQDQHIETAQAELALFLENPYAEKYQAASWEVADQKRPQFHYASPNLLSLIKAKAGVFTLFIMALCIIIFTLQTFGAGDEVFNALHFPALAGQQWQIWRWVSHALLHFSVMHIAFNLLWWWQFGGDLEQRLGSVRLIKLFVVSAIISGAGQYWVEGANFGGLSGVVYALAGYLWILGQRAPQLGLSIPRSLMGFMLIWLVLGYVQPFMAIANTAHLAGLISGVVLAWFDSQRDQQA
Description: as §1

Another assay concerns the target T3, Rhomboid protease AarA (Providencia stuartii, UniProt P46116).
T3 sequence (P46116 whole entry): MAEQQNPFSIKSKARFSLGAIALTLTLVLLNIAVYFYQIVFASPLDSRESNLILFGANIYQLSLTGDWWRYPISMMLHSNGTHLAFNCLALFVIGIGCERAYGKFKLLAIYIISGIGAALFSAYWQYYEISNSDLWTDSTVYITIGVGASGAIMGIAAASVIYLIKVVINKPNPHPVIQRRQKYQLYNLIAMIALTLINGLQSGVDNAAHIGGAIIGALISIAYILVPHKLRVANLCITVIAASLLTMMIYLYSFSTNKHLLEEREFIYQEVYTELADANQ
Description: as §1

Assay [2] addresses T4, AN1-type domain-containing protein (Archaeoglobus fulgidus (strain ATCC 49558 / DSM 4304 / JCM 9628 / NBRC 100126 / VC-16), UniProt O29251).
T4 sequence (O29251 whole entry): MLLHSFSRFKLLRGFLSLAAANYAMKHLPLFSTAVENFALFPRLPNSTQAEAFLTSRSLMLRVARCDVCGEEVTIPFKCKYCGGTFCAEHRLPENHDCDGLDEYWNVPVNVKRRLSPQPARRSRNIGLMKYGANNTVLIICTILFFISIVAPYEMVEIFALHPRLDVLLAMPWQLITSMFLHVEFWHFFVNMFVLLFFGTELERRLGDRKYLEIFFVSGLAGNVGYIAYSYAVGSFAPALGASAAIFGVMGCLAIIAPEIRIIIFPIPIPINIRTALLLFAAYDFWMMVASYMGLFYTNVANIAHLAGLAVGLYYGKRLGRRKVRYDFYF
Description: as §1

Assay [3] has as its target Rhomboid protease GluP [F193S,L370F,L379S,R499W] (Bacillus subtilis (strain 168), UniProt P54493, F193S/L370F/L379S/R499W).
Description: as §1

Assay [4] addresses T5, Rhomboid protease GlpG (Haemophilus influenzae, UniProt A0A2R3FW87).
T5 sequence (A0A2R3FW87 whole entry): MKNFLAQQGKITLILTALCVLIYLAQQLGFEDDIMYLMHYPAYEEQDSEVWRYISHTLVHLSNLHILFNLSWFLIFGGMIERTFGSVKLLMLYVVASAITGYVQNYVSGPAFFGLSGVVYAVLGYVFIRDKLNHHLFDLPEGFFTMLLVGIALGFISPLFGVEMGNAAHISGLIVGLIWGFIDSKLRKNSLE
Description: as §1

Assay [5] addresses T6, Rhomboid domain-containing protein (Pyrococcus horikoshii (strain ATCC 700860 / DSM 12428 / JCM 9974 / NBRC 100139 / OT-3), UniProt O59166).
T6 sequence (O59166 whole entry): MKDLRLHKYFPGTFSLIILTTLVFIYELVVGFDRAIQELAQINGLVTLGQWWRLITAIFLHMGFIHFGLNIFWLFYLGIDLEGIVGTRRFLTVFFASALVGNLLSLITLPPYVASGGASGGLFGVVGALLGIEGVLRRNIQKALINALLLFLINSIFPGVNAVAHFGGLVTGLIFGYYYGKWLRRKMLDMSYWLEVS
Description: as §1

Assay [6] deals with T7, Rhomboid domain-containing protein (Aquifex aeolicus (strain VF5), UniProt O67346).
T7 sequence (O67346 whole entry): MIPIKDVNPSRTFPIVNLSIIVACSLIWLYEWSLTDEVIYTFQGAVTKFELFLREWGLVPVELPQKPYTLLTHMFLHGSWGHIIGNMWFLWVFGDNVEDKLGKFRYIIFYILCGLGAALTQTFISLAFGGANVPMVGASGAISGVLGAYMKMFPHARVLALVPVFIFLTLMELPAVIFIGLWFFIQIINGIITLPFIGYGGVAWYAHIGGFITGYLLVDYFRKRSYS
Description: as §1

For assay [7], the target named is T8, Rhomboid domain-containing protein (Thermotoga maritima (strain ATCC 43589 / DSM 3109 / JCM 10099 / NBRC 100826 / MSB8), UniProt Q9WZ53).
T8 sequence (Q9WZ53 whole entry): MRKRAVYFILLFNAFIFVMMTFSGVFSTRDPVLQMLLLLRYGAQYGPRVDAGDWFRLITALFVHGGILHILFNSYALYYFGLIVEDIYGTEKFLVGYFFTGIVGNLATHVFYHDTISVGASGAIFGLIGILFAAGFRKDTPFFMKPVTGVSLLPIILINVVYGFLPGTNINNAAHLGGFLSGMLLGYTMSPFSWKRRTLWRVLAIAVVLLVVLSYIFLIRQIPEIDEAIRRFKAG
Description: as §1

The target of assay [8] is T9, Rhomboid protease GlpG (Escherichia coli (strain K12), UniProt P09391).
T9 sequence (P09391 whole entry): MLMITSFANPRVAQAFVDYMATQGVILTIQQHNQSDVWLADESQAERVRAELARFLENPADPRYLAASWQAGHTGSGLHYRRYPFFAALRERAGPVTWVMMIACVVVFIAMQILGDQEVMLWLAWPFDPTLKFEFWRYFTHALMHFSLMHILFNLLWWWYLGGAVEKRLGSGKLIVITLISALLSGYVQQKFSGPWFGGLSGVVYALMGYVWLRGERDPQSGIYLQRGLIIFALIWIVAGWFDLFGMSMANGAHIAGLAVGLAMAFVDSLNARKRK
Description: as §1

For assay [9], the target named is T10, Rhomboid-related protein 3 (Mus musculus, UniProt P58873).
T10 sequence (P58873 whole entry): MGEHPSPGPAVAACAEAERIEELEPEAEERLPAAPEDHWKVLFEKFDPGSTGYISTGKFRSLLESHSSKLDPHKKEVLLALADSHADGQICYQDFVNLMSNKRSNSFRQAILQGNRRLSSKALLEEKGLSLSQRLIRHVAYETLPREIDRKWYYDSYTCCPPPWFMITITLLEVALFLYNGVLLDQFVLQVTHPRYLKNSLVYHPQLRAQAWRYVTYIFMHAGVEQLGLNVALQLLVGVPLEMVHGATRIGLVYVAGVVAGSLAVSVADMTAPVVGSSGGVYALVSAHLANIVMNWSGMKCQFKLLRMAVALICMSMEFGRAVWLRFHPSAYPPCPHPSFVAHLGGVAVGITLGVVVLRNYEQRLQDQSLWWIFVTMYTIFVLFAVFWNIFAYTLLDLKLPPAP
Description: as §1

These results are taken from BindingDB's records for doi:10.1021/acschembio.5b00514 (Technische Universität München, 2015).

Chain of Rhomboid protease GluP [F193S,L370F,L379S,R499W] (P54493 whole entry F192S/L370F/L379S/R499W): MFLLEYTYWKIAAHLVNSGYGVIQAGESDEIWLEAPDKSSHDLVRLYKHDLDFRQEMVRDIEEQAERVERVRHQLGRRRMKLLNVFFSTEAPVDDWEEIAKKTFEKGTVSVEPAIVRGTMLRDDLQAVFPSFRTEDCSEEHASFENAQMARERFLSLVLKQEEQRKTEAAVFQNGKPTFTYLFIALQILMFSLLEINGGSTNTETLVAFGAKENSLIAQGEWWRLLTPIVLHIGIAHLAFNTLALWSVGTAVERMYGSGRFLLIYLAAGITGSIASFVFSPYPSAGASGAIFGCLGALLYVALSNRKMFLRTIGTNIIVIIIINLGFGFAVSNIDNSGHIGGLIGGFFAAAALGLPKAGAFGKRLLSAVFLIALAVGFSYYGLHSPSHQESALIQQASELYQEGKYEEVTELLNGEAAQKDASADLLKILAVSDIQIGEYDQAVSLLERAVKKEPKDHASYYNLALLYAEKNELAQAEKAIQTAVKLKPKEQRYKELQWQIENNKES

For the molecule `O=c1oc(Cl)c(Cl)c2ccccc12`, the 50% inhibitory concentration (IC50) (usually the concentration at which inhibition is half-maximal) in [1] stood at 28 µM; on GlpG protein, 27 µM; against Rhomboid protease AarA, 10 µM; in assay [2], 8.1 µM; in assay [3], 4.1 µM; against Rhomboid protease GlpG [4], 0.66 µM. The IC50 in [5] is 16 µM; in assay [6], 1.1 µM; in assay [7], 1 µM; against Rhomboid protease GlpG [8], 19 µM; in assay [9] it was 70 µM.

`O=c1oc(OCCCCCc2ccccc2)c(Cl)c2ccc([N+](=O)[O-])cc12` [4‐Chloro‐7‐nitro‐3‐[(5‐phenylpentyl)oxy]isochromen‐1‐one (21)]: the half-maximal inhibitory concentration (IC50) in [1] is 39 µM; against GlpG protein it was 76 µM; on Rhomboid protease AarA, 10 µM; in assay [3], 25 µM; at Rhomboid protease GlpG [4], 4.6 µM; in [5], 25 µM. Besides, the IC50 in assay [6] was 1.7 µM; in [7], 28 µM; in assay [9], 24 µM.

With `C#CCCC[C@@H]1OC(=O)[C@H]1CCCC` [(4S)‐3‐butyl‐4‐(pent‐4‐yn‐1‐yl)oxetan‐2‐one (48)], the IC50 came out at 48 µM in [7] and 44 µM against Rhomboid protease GlpG [8].

Turning to `C#CCCC[C@@H]1OC(=O)[C@H]1c1cc(OC)c(OC)c(OC)c1` [(4S)‐4‐(pent‐4‐yn‐1‐yl)‐3‐(3,4,5‐trimethoxyphenyl)oxetan‐2‐one (45)], the results for the half-inhibitory concentration (IC50) (in [2]; against Rhomboid protease GlpG [4]) were 5 µM and 65 µM, respectively.

Turning to `C#CCCC[C@@H]1OC(=O)[C@H]1CCCCC` [(4S)‐4‐(pent‐4‐yn‐1‐yl)‐3‐pentyloxetan‐2‐one (47)], 27 µM corresponded to half-maximal inhibition in assay [7] (IC50).
